One test relates to MOLM-13. Kind of test: Antiproliferative activity against FLT3-dependent human MOLM-13 cells expressing FLT3 ITD mutant assessed as reduction in cell viability incubated for 72 hrs by luminescence based assay. In kind it is functional. As to conditions: MOLM-13, 72 h.
Test [1] has as its target T1, Receptor-type tyrosine-protein kinase FLT3 (Homo sapiens, UniProt P36888, ITD). Kind of test: Inhibition of FLT3-ITD mutant (unknown origin) using biotin-tagged TK substrate preincubated for 10 mins followed by substrate and ATP addition and measured after 40 mins by ADP-Glo Kinase Assay.
Test [2] has as its target T1, Receptor-type tyrosine-protein kinase FLT3. The experiment in a line: Inhibition of FLT3-ITD mutant (unknown origin).

This note sets out measurements from ChEMBL document CHEMBL6120987, “Identification of inhibitors targeting the FLT3-ITD mutation through 4D-QSAR, in vitro, and in silico” (Eur J Med Chem, 2025).

T1 sequence (P36888 whole entry, looked up, stated change not applied): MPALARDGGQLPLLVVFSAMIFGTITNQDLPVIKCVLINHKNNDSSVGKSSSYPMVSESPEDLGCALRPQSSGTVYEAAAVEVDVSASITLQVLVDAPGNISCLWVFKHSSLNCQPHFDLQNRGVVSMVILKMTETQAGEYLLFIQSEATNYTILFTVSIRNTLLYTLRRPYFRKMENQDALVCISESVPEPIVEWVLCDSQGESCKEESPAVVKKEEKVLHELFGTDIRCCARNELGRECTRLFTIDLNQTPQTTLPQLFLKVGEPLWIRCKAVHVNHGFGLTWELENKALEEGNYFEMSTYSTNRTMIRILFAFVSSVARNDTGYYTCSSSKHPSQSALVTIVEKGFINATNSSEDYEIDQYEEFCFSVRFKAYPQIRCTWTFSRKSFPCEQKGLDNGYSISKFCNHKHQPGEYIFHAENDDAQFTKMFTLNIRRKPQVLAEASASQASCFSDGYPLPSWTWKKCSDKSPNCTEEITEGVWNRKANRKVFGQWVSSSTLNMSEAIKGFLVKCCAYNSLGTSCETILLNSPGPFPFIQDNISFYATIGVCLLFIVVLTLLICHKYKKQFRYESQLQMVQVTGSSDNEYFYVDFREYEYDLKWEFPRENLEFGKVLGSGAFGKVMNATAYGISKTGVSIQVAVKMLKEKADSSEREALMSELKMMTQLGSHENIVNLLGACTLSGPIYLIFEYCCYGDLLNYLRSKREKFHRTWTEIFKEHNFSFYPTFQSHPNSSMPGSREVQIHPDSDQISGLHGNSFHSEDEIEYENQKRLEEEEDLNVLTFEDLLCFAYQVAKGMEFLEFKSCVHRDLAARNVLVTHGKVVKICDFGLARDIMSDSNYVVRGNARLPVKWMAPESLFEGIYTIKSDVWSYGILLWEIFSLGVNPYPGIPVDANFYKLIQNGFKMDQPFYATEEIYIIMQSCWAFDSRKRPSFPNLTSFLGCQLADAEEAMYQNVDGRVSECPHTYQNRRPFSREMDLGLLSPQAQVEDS

Usually IC50 stands for the concentration at which inhibition is half-maximal. Turning to `CCc1nc(C(N)=O)c(Nc2ccc(N3CCC(NC(=O)C4c5ccccc5-c5ccccc54)CC3)c(OC)c2)nc1NC1CCOCC1`, in the test with MOLM-13, the IC50 came to 147 nM.

For the molecule `CCc1nc(C(N)=O)c(Nc2ccc(N3CCC(NC(=O)C45C6C7C4C4C5C6C74C(=O)OC)CC3)c(OC)c2)nc1NC1CCOCC1` (stereo not given), the IC50 with MOLM-13 was 87.4 nM; in test [1] it was 6.1 nM.

In the case of `CCc1nc(C(N)=O)c(Nc2ccc(N3CCC(N4CCN(C(=O)C56C7C8C5C5C6C7C85C(=O)OC)CC4)CC3)c(OC)c2)nc1NC1CCOCC1` (stereo not given), the IC50 in the test on MOLM-13 was 25.6 nM; in test [1] it was 2.12 nM.

Take `CCc1nc(C(N)=O)c(Nc2ccc(N3CCC(NC(=O)C4CC5C=CC4C5)CC3)c(OC)c2)nc1NC1CCOCC1` (stereo not given): the IC50 in the test on MOLM-13 was found to be 55 nM; in test [1] it was 3.06 nM.

Consider `CCCCCCCC/C=C\CCCCCCCC(=O)N1CCN(c2ccc(Nc3nc(NC4CCOCC4)c(CC)nc3C(N)=O)cc2OC)CC1`, for which the IC50 with MOLM-13 was determined as 2440 nM.

Molecule `CCCCCCCC/C=C\CCCCCCCC(=O)O` [OLEIC ACID] had an IC50 in test [2] of 511 nM.

On to `CCc1nc(C(N)=O)c(Nc2ccc(N3CCC(N4CCN(C(=O)C5CC6C=CC5C6)CC4)CC3)c(OC)c2)nc1NC1CCOCC1` (stereo not given), for which the IC50 in the test on MOLM-13 is 54.6 nM; in test [1], 4.83 nM.

In the case of `CCc1nc(C(N)=O)c(Nc2ccc(N3CCN(C(=O)C45C6C7C4C4C5C6C74C(=O)OC)CC3)c(OC)c2)nc1NC1CCOCC1` (stereo not given), the IC50 with MOLM-13 was found to be 111 nM.

Consider `CCc1nc(C(N)=O)c(Nc2ccc(N3CCC(NC(=O)C45CC6CC(CC(C6)C4)C5)CC3)c(OC)c2)nc1NC1CCOCC1`, for which the IC50 with MOLM-13 was 992 nM.

As for `CCc1nc(C(N)=O)c(Nc2ccc(N3CCN(C(=O)C4CC5C=CC4C5)CC3)c(OC)c2)nc1NC1CCOCC1` (stereo not given), the values for the 50% inhibitory concentration (IC50) (in the test with MOLM-13; in test [1]) were 63.4 nM and 1.29 nM, respectively.

In turn, `COc1cc(N)ccc1N1CCC(N2CCN(C(=O)OC(C)(C)C)CC2)CC1` gave an IC50 in test [2] of 511 nM.

As to `CCc1nc(C(N)=O)c(Nc2ccc(N3CCC(N4CCN(C(=O)C56CC7CC(CC(C7)C5)C6)CC4)CC3)c(OC)c2)nc1NC1CCOCC1`, the IC50 with MOLM-13 turned out to be 188 nM.

As for `CCCCCCCC/C=C\CCCCCCCC(=O)NC1CCN(c2ccc(Nc3nc(NC4CCOCC4)c(CC)nc3C(N)=O)cc2OC)CC1`, the IC50 in the test on MOLM-13 was found to be 745 nM.

On to `CCc1nc(C(N)=O)c(Nc2ccc(N3CCN(C(=O)C45CC6CC(CC(C6)C4)C5)CC3)c(OC)c2)nc1NC1CCOCC1`, for which, in the test on MOLM-13, the IC50 is 1340 nM.

The molecule `CCc1nc(C(N)=O)c(Nc2ccc(N3CCN(C(=O)OC(C)(C)C)CC3)c(OC)c2)nc1NC1CCOCC1` gave an IC50 in test [2] of 370 nM.

`CCCCCCCC/C=C\CCCCCCCC(=O)N1CCN(C2CCN(c3ccc(Nc4nc(NC5CCOCC5)c(CC)nc4C(N)=O)cc3OC)CC2)CC1`: the IC50 with MOLM-13 is more than 10000 nM.

On to `CCc1nc(C(N)=O)c(Nc2ccc(N3CCN(C(=O)C4c5ccccc5-c5ccccc54)CC3)c(OC)c2)nc1NC1CCOCC1`, for which the IC50 in the test on MOLM-13 turned out to be 142 nM.

For `CCc1nc(C(N)=O)c(Nc2ccc(N3CCC(N4CCN(C)CC4)CC3)c(OC)c2)nc1NC1CCOCC1` [GILTERITINIB], the IC50 in the test on MOLM-13 stood at 22.4 nM.

The molecule `CC(C)(C)OC(=O)N1CCNCC1` had an IC50 in test [2] of 560 nM.

For `CCc1nc(C(N)=O)c(Nc2ccc(N3CCC(N4CCN(C(=O)C5c6ccccc6-c6ccccc65)CC4)CC3)c(OC)c2)nc1NC1CCOCC1`, the IC50 in the test with MOLM-13 stood at 154 nM.
